Results on five compounds are retold here after patent publication EP4029501A1, “COMBINATION OF POLYAROMATIC UREA DERIVATIVES AND GLUCOCORTICOID OR HDAC INHIBITOR FOR THE TREATMENT OF DISEASES OR CONDITIONS ASSOCIATED WITH MUSCLE CELLS AND/OR SATELLITE CELLS” (Anagenesis Biotechnologies, priority 2021, dated 2022).

SMILES strings stand for the structures. Where two headings read alike, the source gives them in different places.

Test [1] has as its system muscle progenitors derived from DMD hiPSC. Put plainly: Myotube assay: total myotube area per well (alpha-actinin staining). In kind it is cell-based, human. As to conditions: for Emax / EC50: Homo sapiens, Myotube. In a few lines:
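DMD hiPSC-derived muscle progenitors (NCRM-1 background) plated at 3500 cells/well in K5 medium with 5 µM Y-27632, then exposed to compound at 1.5 nM–30 µM for 3 days at 37°C. Cells fixed on day 7, alpha-actinin-immunostained and total myotube area per well quantified; duplicates averaged, EC50 and normalized myotube area derived.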

In a further test the test system is Pax7-positive cells. As to the kind of experiment: Myotube assay: Pax7-positive (satellite-like) cell quantification. Type of test: cell-based, human. Further details: key to Pax7: (-) : Depletes the pool of cells, while positively affects the myotubes; (+) : Maintains or increases the pool of cells, with at least 1 of the highest concentration known to be cytotoxic; (++) Maintains or increases the pool of cells, without any toxicity. As to conditions: for Pax7: comparative compounds, effect on pool of Pax7-positive cells. From the text:
The efficacy of said compound for use in treating, ameliorating, delaying, curing and/or preventing a disease or condition associated with muscle cells and/or satellite cells is positively correlated with the generation of myotubes (i.e. the increase of the area occupied by myotubes on the assay) and/or satellite cells (i.e. the increase of the number of satellite cells) in the assay after adding said compound. The generation of myotubes by the addition of said compound is expressed as the EC50 value, the concentration of said compound that corresponds with the half-maximal generation of myotubes, and the MA (normalized myotube area) value, the normalized area occupied by generated myotubes on the assay. […] Since muscle cells are formed from myotubes during myogenesis, the generation of myotubes in the assay is a good indicator of the ability of said compound to induce the formation of functional muscle cells in vivo. The number of satellite cells is measured as the percentage of Pax7 positive cells, relative to the total number of cells in the assay, as shown in Figure 3. The percentage of Pax7 is a good indicator of the ability of said compound to induce the formation of satellite cells which are able to play a role in muscle repair and regeneration in vivo.
DMD human induced pluripotent stem cells (hereafter "DMD hiPSC"), generated from the NCRM-1 hiPSC WT cell line by gene editing, or WT human induced pluripotent stem cells (hereafter "WT hiPSC"), being NCRM-1 hiPSC wt cell line, have been differentiated according to Chal et al. 2015, 2016, to produce muscle progenitors (hereafter "hMP"). The hMP population contains satellite-like cells (i.e Pax7-positive cells) and satellite cells' progenies (i.e. Myogenin-positive cells).
Figure 1 provides an example of a Myotube assay workflow. At day 0, hMP are thawed and 3.1 million cells are plated into a T75-flask coated with hESC-qualified Matrigel™ (Corning) in SkGM proliferating medium (PromoCells), supplemented with 5 µM Y-27632 (Tocris Bioscience). On day 2, SkGM proliferating medium is refreshed. On day 4, hMP are harvested and transferred into a 384-well plate coated with collagen type I at a density of 3500 cells/well in a DMEM-based medium, containing 5% of knockout serum replacement (Gibco), 1% PenStrep (Gibco), 1% MEM NEAA (Gibco) and 0.1 mM 2-mercaptoethanol (Gibco) (hereafter "K5 medium") and 5 µM Y-27632. Compounds to be tested are then added in the medium and incubated for 3 days at 37°C. On day 7, cells are fixed and immunostained. For example, myotubes (alpha-actinin staining) and satellite-like (Pax7 staining) cells can be analyzed for total myotube area per well or Pax7-positive cell quantification.
DMD hMP were put in the Myotube assay according to the workflow described in Example 2.1. In particular, compound (i) was added at concentrations ranging from 1.5 nM to 30 µM, starting from day 4. hMP were cultivated for three more days in presence of compound (i), then fixed and analyzed for percentage of Pax7-positive cells and nuclei number. Duplicates of each condition were averaged.
(-) : Depletes the pool of cells, while positively affects the myotubes; (+) : Maintains or increases the pool of cells, with at least 1 of the highest concentration known to be cytotoxic; and (++) Maintains or increases the pool of cells, without any toxicity.

Where [2] appears, read: 72 h, comparative compounds, same assay as Table 3, NA: non active, read-out: MA.
The mark [3] stands for this setting: comparative compounds, same assay as Table 3, NA: non active.

Regarding `CC(C)n1nc(C(C)(C)C)cc1NC(=O)Nc1ccc(Oc2ccnc3[nH]c(=O)cnc23)cc1F` [(i), 1-(3-(tert-butyl)-1-isopropyl-1H-pyrazol-5-yl)-3-(2-fluoro-4-((3-oxo-3,4-dihydropyrido[2,3-b]pyrazin-8-yl)oxy)phenyl)urea], in test [1] (DMD hMP, 10 increasing concentrations 1.5 nM to 30 µM, 3 days (figure 2)), the myotube surface entry is on record as “dose-dependent increase of myotube surface”. Also, the Emax in test [1] (72 h, efficacy, MA = normalized Myotube Area, 3 days incubation, DMD or WT cell source not given) was in the range of 50 to 75%. Further, in test [1] (72 h, myogenic activity, half-maximal generation of myotubes, 10 points dose-response 1.5 nM to 30 µM, 3 days, DMD or WT cell source not given), the EC50 lay within 1000 to 5000 nM. Besides, the “percentage of Pax7-positive cells” value in the test on Pax7-positive cells (DMD hMP, 10 increasing concentrations 1.5 nM to 30 µM, 3 days (figure 3)) is “dose-dependent increase percentage of Pax7-positive cells”.
Regarding `Cc1ccc(-n2nc(C(C)(C)C)cc2NC(=O)Nc2ccc(OCCN3CCOCC3)c3ccccc23)cc1` [BIRB-796], the Emax in test [1] (setting [2]) was at least 75%. For the same compound, the concentration for a half-maximal effect (EC50) in test [1] (setting [3]) was at least 5000 nM. Further, the Pax7 result in the test on Pax7-positive cells is on record as “++”.
Turning to `CC(C)(C)c1cc(NC(=O)Nc2ccc(Oc3ccnc4[nH]c(=O)cnc34)cc2F)n(-c2ccccc2)n1` [CCT196969, reference compound], in test [1] (setting [3]), the EC50 fell in the range of 500 to 1000 nM and the MA result was “++ (++: 50% ≤ MA <75%)”. For the same compound, the Pax7 result in the test with Pax7-positive cells is recorded as “+”.
In test [1] (setting [3]), `CNC(=O)c1cc(Oc2ccc(NC(=O)Nc3cc(C(C)(C)C)nn3-c3ccc4ncccc4c3)c(F)c2)ccn1` [Rebastinib, reference compound] gave an EC50 of 1000 to 5000 nM. Further, in the test on Pax7-positive cells, the Pax7 entry was “+”.
Take `CNC(=O)c1cc(Oc2ccc(NC(=O)Nc3ccc(Cl)c(C(F)(F)F)c3)cc2)ccn1` [Sorafenib]: in test [1] (setting [2]), the Emax lay in the range of 25 to 50%. Besides, in test [1] (setting [3]), the EC50 was at least 5000 nM. Moreover, in the test on Pax7-positive cells, the Pax7 result is “++”.

What is called EC50 is the concentration at which the effect is half-maximal.
